Experimental data as given in ChEMBL document CHEMBL1914348, “Discovery of pyrazoles as novel FPR1 antagonists” (Bioorg Med Chem Lett, 2011).
Active and inactive are the calls of the source. No cut-off for these calls is given here.

Tests used:
[1] = target: T1, fMet-Leu-Phe receptor (Homo sapiens, UniProt P21462); assay: Antagonist activity at human FPR1 in human neutrophils assessed as inhibition of fMLF-stimulated intracellular calcium mobilisation by FLIPR assay; format: functional, cell-based
T1 sequence (P21462 whole entry): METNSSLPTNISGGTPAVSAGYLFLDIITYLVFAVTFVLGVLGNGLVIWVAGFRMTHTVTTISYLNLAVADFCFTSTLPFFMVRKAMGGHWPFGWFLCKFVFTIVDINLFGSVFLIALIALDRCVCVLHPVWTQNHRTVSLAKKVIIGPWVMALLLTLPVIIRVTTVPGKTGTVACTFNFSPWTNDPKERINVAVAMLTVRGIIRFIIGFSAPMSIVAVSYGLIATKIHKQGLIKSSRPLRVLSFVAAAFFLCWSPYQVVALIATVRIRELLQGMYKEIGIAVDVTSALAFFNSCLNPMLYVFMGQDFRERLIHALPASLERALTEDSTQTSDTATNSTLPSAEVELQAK

[2] = Lipophilicity, log D of the compound; format: physicochemical; conditions: octanol/water
[3] = Intrinsic clearance in Sprague-Dawley rat hepatocytes assessed per 10 '6 cells; format: ADME, cell-based, Liver, Hepatocyte
[4] = Intrinsic clearance in Sprague-Dawley rat microsomes; format: ADME, Microsome
[5] = target: T2, fMet-Leu-Phe receptor (Mus musculus) (UniProt P33766); assay: Inhibition of mouse FPR1
T2 sequence (whole entry): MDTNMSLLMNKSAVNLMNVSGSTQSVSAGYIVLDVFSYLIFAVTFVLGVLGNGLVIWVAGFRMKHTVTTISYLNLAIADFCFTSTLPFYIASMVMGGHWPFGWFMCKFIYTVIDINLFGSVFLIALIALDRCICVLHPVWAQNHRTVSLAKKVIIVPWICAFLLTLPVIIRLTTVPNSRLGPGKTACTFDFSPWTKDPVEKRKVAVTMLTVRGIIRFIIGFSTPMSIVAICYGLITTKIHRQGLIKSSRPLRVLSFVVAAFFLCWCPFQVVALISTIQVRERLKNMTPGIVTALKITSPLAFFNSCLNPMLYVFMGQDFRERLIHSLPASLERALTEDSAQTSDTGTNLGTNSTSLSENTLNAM

[6] = target: Cytochrome P450 3A4 (Homo sapiens, UniProt P08684); assay: Inhibition of CYP3A4; format: ADME
Sequence of Cytochrome P450 3A4 (P08684 whole entry): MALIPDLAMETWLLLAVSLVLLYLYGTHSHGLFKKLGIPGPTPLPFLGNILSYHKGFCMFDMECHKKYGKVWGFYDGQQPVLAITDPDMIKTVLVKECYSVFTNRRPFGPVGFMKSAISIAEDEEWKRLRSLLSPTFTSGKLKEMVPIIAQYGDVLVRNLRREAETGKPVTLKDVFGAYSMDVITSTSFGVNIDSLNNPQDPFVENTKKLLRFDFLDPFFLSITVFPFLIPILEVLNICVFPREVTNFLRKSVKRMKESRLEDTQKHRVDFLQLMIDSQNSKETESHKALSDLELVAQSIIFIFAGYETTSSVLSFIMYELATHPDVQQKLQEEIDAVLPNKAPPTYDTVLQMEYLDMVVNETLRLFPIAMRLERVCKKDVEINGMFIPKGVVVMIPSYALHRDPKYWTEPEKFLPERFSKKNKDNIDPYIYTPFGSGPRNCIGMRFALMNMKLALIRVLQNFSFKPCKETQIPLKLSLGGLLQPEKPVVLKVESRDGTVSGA

[7] = species on record: Rattus norvegicus; assay: Inhibition of rat FPR1
[8] = target: T1, fMet-Leu-Phe receptor; assay: Antagonist activity at FPR1 in whole blood assessed as CD11 level; format: functional, tissue-based; conditions: read-out: pA2 (converted)
[9] = species on record: Cavia porcellus; assay: Inhibition of guinea pig FPR1
[10] = target: T3, Cytochrome P450 1A2 (Homo sapiens, UniProt P05177); assay: Inhibition of CYP1A2; format: ADME
T3 sequence (P05177 whole entry): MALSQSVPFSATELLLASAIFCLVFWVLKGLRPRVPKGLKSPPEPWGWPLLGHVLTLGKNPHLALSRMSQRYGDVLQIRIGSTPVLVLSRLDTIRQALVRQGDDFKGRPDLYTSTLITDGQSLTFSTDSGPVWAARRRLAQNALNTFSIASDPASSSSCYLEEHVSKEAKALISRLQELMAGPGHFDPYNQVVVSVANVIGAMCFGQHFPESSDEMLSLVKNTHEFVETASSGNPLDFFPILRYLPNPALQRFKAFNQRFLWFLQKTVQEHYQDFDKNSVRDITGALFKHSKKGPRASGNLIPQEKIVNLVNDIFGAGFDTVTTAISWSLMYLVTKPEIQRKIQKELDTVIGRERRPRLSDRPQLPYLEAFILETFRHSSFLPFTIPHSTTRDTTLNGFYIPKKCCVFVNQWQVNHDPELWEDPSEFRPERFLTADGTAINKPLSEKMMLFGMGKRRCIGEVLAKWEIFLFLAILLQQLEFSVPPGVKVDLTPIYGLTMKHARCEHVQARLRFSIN

[11] = target: Cytochrome P450 2C9 (Homo sapiens, UniProt P11712); assay: Inhibition of CYP2C9; format: ADME
Sequence of Cytochrome P450 2C9 (P11712 whole entry): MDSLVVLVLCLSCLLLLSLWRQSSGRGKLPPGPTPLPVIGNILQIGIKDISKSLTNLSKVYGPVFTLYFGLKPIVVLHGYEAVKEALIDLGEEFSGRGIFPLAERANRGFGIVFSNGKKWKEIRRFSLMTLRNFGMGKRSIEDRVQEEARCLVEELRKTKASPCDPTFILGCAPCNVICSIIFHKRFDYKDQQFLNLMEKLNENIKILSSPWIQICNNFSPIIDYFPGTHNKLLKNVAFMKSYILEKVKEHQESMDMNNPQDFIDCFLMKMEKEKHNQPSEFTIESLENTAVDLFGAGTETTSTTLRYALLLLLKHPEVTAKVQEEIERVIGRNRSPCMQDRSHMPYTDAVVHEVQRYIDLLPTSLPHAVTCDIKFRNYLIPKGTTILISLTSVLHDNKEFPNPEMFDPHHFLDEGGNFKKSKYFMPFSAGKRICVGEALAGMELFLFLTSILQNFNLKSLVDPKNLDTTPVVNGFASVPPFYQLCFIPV

[12] = Intrinsic clearance in human hepatocytes assessed per 10 '6 cells; format: ADME, cell-based, Liver, Hepatocyte
[13] = target: Cytochrome P450 2C19 (Homo sapiens, UniProt P33261); assay: Inhibition of CYP2C19; format: ADME
Sequence of Cytochrome P450 2C19 (P33261 whole entry): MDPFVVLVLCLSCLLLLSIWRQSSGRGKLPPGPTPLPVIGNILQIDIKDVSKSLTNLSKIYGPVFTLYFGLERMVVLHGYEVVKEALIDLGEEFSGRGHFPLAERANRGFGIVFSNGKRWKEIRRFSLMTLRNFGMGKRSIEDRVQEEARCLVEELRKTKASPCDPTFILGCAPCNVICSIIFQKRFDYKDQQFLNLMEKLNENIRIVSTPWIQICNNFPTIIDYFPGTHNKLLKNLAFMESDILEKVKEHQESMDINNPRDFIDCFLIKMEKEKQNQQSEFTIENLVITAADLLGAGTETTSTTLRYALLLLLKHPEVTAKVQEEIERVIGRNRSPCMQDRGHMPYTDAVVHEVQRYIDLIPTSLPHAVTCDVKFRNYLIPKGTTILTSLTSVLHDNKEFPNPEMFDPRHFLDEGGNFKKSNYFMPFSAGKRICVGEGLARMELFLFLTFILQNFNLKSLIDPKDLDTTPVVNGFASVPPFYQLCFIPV

[14] = Fraction unbound in human; format: ADME, organism-based; conditions: in vivo
[15] = Fraction unbound in rat; format: ADME, organism-based; conditions: in vivo
[16] = Intrinsic clearance in human microsomes; format: ADME, Microsome
[17] = Solubility of the compound; format: physicochemical
[18] = target: Cytochrome P450 2D6 (Homo sapiens, UniProt P10635); assay: Inhibition of CYP2D6; format: ADME
Sequence of Cytochrome P450 2D6 (P10635 whole entry): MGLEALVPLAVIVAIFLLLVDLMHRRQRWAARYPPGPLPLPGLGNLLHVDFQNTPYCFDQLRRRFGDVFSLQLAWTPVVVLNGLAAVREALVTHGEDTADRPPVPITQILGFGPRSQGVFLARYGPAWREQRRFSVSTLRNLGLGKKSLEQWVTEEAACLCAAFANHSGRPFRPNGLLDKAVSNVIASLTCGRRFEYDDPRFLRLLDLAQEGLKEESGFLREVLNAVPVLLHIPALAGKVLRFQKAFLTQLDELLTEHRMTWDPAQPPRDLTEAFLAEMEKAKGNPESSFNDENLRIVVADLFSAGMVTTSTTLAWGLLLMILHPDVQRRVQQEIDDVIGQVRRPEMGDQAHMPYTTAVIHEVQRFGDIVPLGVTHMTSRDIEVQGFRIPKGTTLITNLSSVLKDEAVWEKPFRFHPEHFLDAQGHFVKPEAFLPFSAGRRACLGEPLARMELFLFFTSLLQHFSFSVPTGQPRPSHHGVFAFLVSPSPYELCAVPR

[19] = Chemical stability of the compound assessed as half life; format: physicochemical
[20] = target: T4, fMet-Leu-Phe receptor (Homo sapiens) (UniProt P21462); assay: Antagonist activity at human FPR1 in human neutrophils assessed as inhibition of fMLF-stimulated intracellular calcium mobilisation at 50 uM by FLIPR assay; format: functional, cell-based
T4 sequence (whole entry): T1 sequence (P21462 whole entry)

IC50 [1] [µM] | SMILES | also measured
0.158 | Cc1ccc(S(=O)(=O)Nc2c(C(=O)NC3CCCCC3C)c(C)nn2-c2ccccc2)cc1 (mixture of isomers) | –
1 | Cc1nn(-c2ccc(F)cc2)c(NS(=O)(=O)c2cccnc2)c1C(=O)N[C@@H](C)C(C)(C)C | –
0.794 | Cc1ccc(S(=O)(=O)Nc2c(C(=O)NCc3ccc(C)cc3C)cnn2-c2ccccc2)cc1 | –
1 | Cc1ccc(S(=O)(=O)Nc2c(C(=O)NC3CCCCC3C)cnn2-c2ccccc2)cc1 (mixture of isomers) | –
10 | CCC(CC)NC(=O)c1cn(-c2ccccc2)nc1NS(=O)(=O)c1ccc(C)cc1 | –
0.0794 | CCN(C(=O)c1cnn(-c2ccccc2)c1NS(=O)(=O)c1ccc(-c2cnco2)cc1)C1CCCCC1 | –
5.01 | CCC(CC)NC(=O)c1cnn(-c2ccccc2)c1NS(=O)(=O)C1CCCC1 | –
1.58 | CCC(CC)NC(=O)c1ncn(-c2ccccc2)c1NS(=O)(=O)c1ccc(C)cc1 | –
0.316 | CCCC(CC)NC(=O)c1cnn(-c2ccccc2)c1NS(=O)(=O)c1ccc(C)cc1 (centres undefined) | –
10 | CCC(CC)NC(=O)c1cnn(-c2ccccc2Cl)c1NS(=O)(=O)c1ccc(C)cc1 | –
2 | CCC(CC)NC(=O)c1cnn(-c2ccccc2)c1NS(=O)(=O)c1ccc(C)cc1 | –
0.0126 | Cc1nn(-c2ccc(F)cc2)c(NS(=O)(=O)c2ccc(C(F)(F)F)cc2)c1C(=O)N[C@@H](C)C(C)(C)C | –
3.16 | Cc1ccc(S(=O)(=O)Nc2c(C(=O)N(C)C3CCCCC3)c(C)nn2-c2ccccc2)cc1 | –
0.0251 | Cc1ccc(S(=O)(=O)Nc2c(C(=O)N[C@@H](C)C(C)(C)C)c(C(F)(F)F)nn2-c2ccccc2)cc1 | –
3.98 | CCC(CC)NC(=O)c1nnn(-c2ccccc2)c1NS(=O)(=O)c1ccc(C)cc1 | –
0.0794 | Cc1ccc(S(=O)(=O)Nc2c(C(=O)N[C@@H](C)C(C)(C)C)c(C)nn2-c2ccccc2)cc1 | logD [2]: 1.4; hepatocyte CLint [3]: 12 µL/min/1e6 cells; microsomal CLint [4]: 53 µL/min/mg; inhibition [5]: inactive; IC50 [6]: > 10 µM; inhibition [7]: inactive; Kb [8]: 0.398 µM; inhibition [9]: inactive; IC50 [10]: > 10 µM; IC50 [11]: > 10 µM; hepatocyte CLint [12]: 7 µL/min/1e6 cells; IC50 [13]: > 10 µM; fraction unbound [14]: 0.011; fraction unbound [15]: 0.042; microsomal CLint [16]: 40 µL/min/mg; solubility [17]: > 1000 µM; IC50 [18]: > 10 µM; half-life [19]: > 41.7 days
5.01 | CCC(CC)NC(=O)c1cnn(-c2ccccc2)c1NS(=O)(=O)c1ccccc1 | –
5.01 | CCC(CC)NC(=O)c1cnn(-c2ccccc2)c1NS(=O)(=O)c1ccc(-c2cnco2)cc1 | –
– | CNC(=O)c1cnn(-c2ccccc2)c1NS(=O)(=O)c1ccc(C)cc1 | inhibition [20]: < 25%
0.126 | Cc1ccc(S(=O)(=O)Nc2c(C(=O)NC(C)C(C)(C)C)c(C)nn2-c2ccccc2)cc1 (centres undefined) | –
10 | Cc1ccc(S(=O)(=O)Nc2c(C(=O)NC3CCOCC3)cnn2-c2ccccc2)cc1 | –
